Experimental data: publication PMC5566576, “Identification and Functional Characterization of Small Alarmone Synthetases in Corynebacterium glutamicum” (Frontiers in Microbiology, 2017)

How the values were obtained:
RelCg [1] = biological target: T1, RelCg (Corynebacterium glutamicum, UniProt O87331); experiment: pyrophosphokinase assay, HPLC-MS product detection (ppGpp); type: biochemical; conditions: 4 mM ATP, 4 mM GDP, 50 mM Tris-HCl pH 8.0, 5 mM MgCl2, 30°C, 4 h; GDP also phosphorylated to GTP
T1 construct: gene relA
T1 sequence (O87331 1-760): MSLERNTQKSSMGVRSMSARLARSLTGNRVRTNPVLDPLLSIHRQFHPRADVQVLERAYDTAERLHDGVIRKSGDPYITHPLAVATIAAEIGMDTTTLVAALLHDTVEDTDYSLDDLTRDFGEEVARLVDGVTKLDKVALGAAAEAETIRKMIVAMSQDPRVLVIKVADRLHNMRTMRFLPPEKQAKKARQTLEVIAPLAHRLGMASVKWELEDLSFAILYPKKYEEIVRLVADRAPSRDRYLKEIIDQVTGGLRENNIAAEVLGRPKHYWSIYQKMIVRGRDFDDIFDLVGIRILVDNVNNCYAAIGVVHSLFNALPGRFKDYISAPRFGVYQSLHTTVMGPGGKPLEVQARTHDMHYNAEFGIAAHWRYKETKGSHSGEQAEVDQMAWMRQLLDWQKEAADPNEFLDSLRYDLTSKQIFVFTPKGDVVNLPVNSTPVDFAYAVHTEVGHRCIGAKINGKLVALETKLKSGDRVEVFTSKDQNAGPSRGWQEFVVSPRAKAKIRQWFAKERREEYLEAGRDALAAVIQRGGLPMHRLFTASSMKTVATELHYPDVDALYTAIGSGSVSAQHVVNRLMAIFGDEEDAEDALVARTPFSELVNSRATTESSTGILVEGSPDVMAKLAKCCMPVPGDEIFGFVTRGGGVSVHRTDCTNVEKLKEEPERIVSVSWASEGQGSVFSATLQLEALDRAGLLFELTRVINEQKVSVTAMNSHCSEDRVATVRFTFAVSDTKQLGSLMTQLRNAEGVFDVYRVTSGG

RelP*Cg [2] = biological target: T2, RelP*Cg (Corynebacterium glutamicum, UniProt Q8NR76); experiment: kinase activity, HPLC-MS product detection (ADP and GTP); type: biochemical; conditions: 4 mM ATP, 4 mM GDP, 50 mM Tris-HCl pH 8.0, 5 mM MgCl2, 30°C, 4 h; no pyrophosphokinase activity
T2 construct: gene Cgl1177
T2 sequence (Q8NR76 entry or part of it): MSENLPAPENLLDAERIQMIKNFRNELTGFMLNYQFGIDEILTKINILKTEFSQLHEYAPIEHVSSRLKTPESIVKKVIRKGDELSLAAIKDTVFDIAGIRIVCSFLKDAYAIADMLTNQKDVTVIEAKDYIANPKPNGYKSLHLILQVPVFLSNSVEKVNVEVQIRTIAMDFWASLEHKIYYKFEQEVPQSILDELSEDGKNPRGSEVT

RelCg [3] = biological target: T1, RelCg; experiment: pyrophosphokinase assay, HPLC-MS product detection (pppGpp); type: biochemical; conditions: 4 mM ATP, 4 mM GTP, 50 mM Tris-HCl pH 8.0, 5 mM MgCl2, 30°C, 4 h
RelP*Cg [4] = biological target: T2, RelP*Cg; experiment: phosphohydrolase activity, HPLC-MS product detection (ADP and GDP); type: biochemical; conditions: 4 mM ATP, 4 mM GTP, 50 mM Tris-HCl pH 8.0, 5 mM MgCl2, 30°C, 4 h; no alarmone formed
[5] = substrate: Nc1ncnc2c1ncn2[C@@H]1O[C@H](COP(=O)(O)OP(=O)(O)OP(=O)(O)O)[C@@H](O)[C@H]1O; experiment: pyrophosphokinase assay, HPLC-MS quantification of AMP; half-maximal specific activity; type: biochemical, Corynebacterium glutamicum; conditions: 25 mM GTP, 50 mM HEPES-Na pH 7.0, 200 mM NaCl, 5 mM MgCl2, 30°C, 60 min, 250 nM enzyme
[6] = substrate: Nc1nc2c(ncn2[C@@H]2O[C@H](COP(=O)(O)OP(=O)(O)O)[C@@H](O)[C@H]2O)c(=O)[nH]1; experiment: pyrophosphokinase assay, HPLC-MS quantification of AMP, polynomial fit; type: biochemical, Corynebacterium glutamicum; conditions: 25 mM ATP, 50 mM HEPES-Na pH 7.0, 200 mM NaCl, 5 mM MgCl2, 30°C, 60 min, 250 nM enzyme, substrate excess inhibition at 25-50 mM
[7] = substrate: Nc1nc2c(ncn2[C@@H]2O[C@H](COP(=O)(O)OP(=O)(O)OP(=O)(O)O)[C@@H](O)[C@H]2O)c(=O)[nH]1; experiment: as above; type: biochemical, Corynebacterium glutamicum; conditions: 25 mM ATP, 50 mM HEPES-Na pH 7.0, 200 mM NaCl, 5 mM MgCl2, 30°C, 60 min, 250 nM enzyme, substrate excess inhibition at 25-50 mM

Nc1nc2c(ncn2[C@@H]2O[C@H](COP(=O)(O)OP(=O)(O)O)[C@@H](O)[C@H]2O)c(=O)[nH]1 [GDP]
pyrophosphokinase assay, HPLC-MS product detection (ppGpp) (RelCg [1]): pyrophosphorylation of GDP and GTP to ppGpp and pppGpp was detected | kinase activity, HPLC-MS product detection (ADP and GTP) (RelP*Cg [2]): RelP^*Cg possesses a kinase activity, since ADP and GTP were produced

Nc1nc2c(ncn2[C@@H]2O[C@H](COP(=O)(O)OP(=O)(O)OP(=O)(O)O)[C@@H](O)[C@H]2O)c(=O)[nH]1 [GTP]
pyrophosphokinase assay, HPLC-MS product detection (pppGpp) (RelCg [3]): pyrophosphorylation of GDP and GTP to ppGpp and pppGpp was detected | phosphohydrolase activity, HPLC-MS product detection (ADP and GDP) (RelP*Cg [4]): containing RelP^*Cg as well as ATP and GTP as substrates, significant amounts of ADP and GDP

B1: RelSCg (Corynebacterium glutamicum ATCC 13032) (protein)
chain: MSDNTLSQFGSYYHEFRRAHPMADVEFLLAIEELLTDGGVTFDRVTTRIKEWSSLKAKARKRRNDGSLIYPDPRKDIHDMIGVRITTYHSTEIPVALKVLQDSFIVHKSVDKAAETRISGGFGYGSHHLILEVDDTSDDLQDYKGLVFEVQVRTVLQHAWAEFEHDIRYKRADVSNPEDFSAEVDRMFTLAAGLIELADQQFDQIAALKETSRVADESVELTAETLPGVLAMLIGNRFPRPRSTNYRFLEDILVANSITSVVQLRELLNPTDIEVLLKVMNYRFHPGQIRIIDDLLLKRFGQSHIDATVATDSQPLNAKRHRQLKRKLELMTQAHLVEPPN
K0.5 [5]: 0.8 mM | Km [6]: 6.1 mM | Km [7]: 4.1 mM
